Reference: article PMC4026528 (PLoS ONE, 2014)
pIC50: −log10 of the molar value.

How the values were obtained:
[1] = Body weight and intestinal histology of treated mice; type: in vivo, female Crl:CD-1 nude mice; settings: 30 mg/kg twice a day for seven days
Experimental: Female athymic nude mice (6 weeks old, Crl:CD-1 nude mice) were obtained from Charles River Italia (Calco, Italy). HT-1080 cells (6×10^∧6 cells) were resuspended in 200 µl of PBS 1X and injected subcutaneously in the right flank of the mice. Body weight and tumor measurements (using a digital caliper) were performed twice a week. Randomization was performed on day 12 after cell injection by comparing tumor mass and treatments started on day 13 when tumors reached a median size of 246 mm^3 (range = 230–268 mm^3). SEN461 was formulated in 0.5% w/v Methocel in MilliQ water and administered PO by oral gavage twice a day at 30 mg/kg for seven consecutive days in a total of 15 animals (n = 5 for each time point). Control animals (n = 5) were administered with the vehicle for the same time period. On treatment day 19, the mice were euthanized under inhalant anesthesia with isoflurane and tumor and blood samples were collected at three different time points (1–4–8 h, n = 5 animals for each time point) after last treatment and subjected to gene expression analysis and compound quantification. All mice were maintained in a conventional-specific-pathogen-free facility according to the NIH guidelines using an approved Animal Care and Use Committee protocol. […]

[2] = tested on: human mRNA in HT-1080 xenograft tumors; assay: Gene expression (qPCR) in HT-1080 xenograft tumors; type: in vivo, female Crl:CD-1 nude mice
Experimental: RNA extraction and quantitative RT-PCR (qPCR) expression analysis was performed as described previously. Gene expression analysis was performed using the human housekeeping gene RPL13A. Primers for the hAXIN2, hCDC25A, hc-MYC, hFZD4, hDVL2, hCSNK1G and hVEGF-A were the following: [NT] Rv: [NT] Rv: [NT] Rv: [NT] Rv: [NT] Rv: [NT] Rv: [NT] Rv: [NT]. Female athymic nude mice (6 weeks old, Crl:CD-1 nude mice) were obtained from Charles River Italia (Calco, Italy). HT-1080 cells (6×10^∧6 cells) were resuspended in 200 μl of PBS 1X and injected subcutaneously in the right flank of the mice. Body weight and tumor measurements (using a digital caliper) were performed twice a week. […] SEN461 was formulated in 0.5% w/v Methocel in MilliQ water and administered PO by oral gavage twice a day at 30 mg/kg for seven consecutive days in a total of 15 animals (n = 5 for each time point). Control animals (n = 5) were administered with the vehicle for the same time period. On treatment day 19, the mice were euthanized under inhalant anesthesia with isoflurane and tumor and blood samples were collected at three different time points (1-4-8 h, n = 5 animals for each time point) after last treatment and subjected to gene expression analysis and compound quantification. All mice were maintained in a conventional-specific-pathogen-free facility according to the NIH guidelines using an approved Animal Care and Use Committee protocol. During all the experimental time period, mice were housed (5 animals/cage) in individually ventilated solid floor plastic cages (Sealsafe Plus GR500, Tecniplast-Gazzada (VA) - Italy) using as bedding the Sawdust SCOBIS UNO by […] (via Galileo […] Milanese, Milano, Italy). Cages were maintained at a temperature of 20-24°C and humidity of 40-70% (Siemens Desigo Apparatus ver. 4.1) with 70 air changes/hour in the cage (10-15 air changes/hour in the room). Animals were subjected to a 12-hour light/12-hour dark cycle and have free access to a standard pelleted commercial laboratory diet (Certified Rodent irradiated 4RF21- Mucedola, Italy) and to municipal tap water, purified by reverse osmosis and autoclaved. The study was conducted in compliance with Decreto Legislativo January 27, 1992, N. 116, Gazzetta Ufficiale N. 40 February 18, 1992, (Directive N. […]) concerning protection of animals used for scientific purposes. The project was authorized by the Italian Institute of Health (48/2009/B). The experimental protocol was […] approved by the Internal Ethical Committee.

143B osteosarcoma cells = assay: Soft agar assay (anchorage-independent growth), 143B; type: cell-based, human; settings: lack of sensitivity up to highest concentration
Experimental: (§1) Soft agar assay and analysis was carried out as previously described. For scratch assay, confluent monolayer of U2OS and HT-1080 cells were subjected to scratch using a sterile pipette tip. Wounded monolayers were washed to remove debris and incubated with SEN461 at different concentrations for 20 hours. After the incubation period, images were taken under an Axiovert 200M (Zeiss) microscope equipped with a CCD camera, and the gap width was measured using MetaMorph 6.3 software (Universal Imaging Corp.) to calculate the area covered by cells (pixels unit). The tube formation assay was performed using growth factor-reduced Matrigel from BD (BD Biosciences; San Jose, CA, USA). Matrigel was thawed overnight at 4°C and was diluted (1∶1) with phenol red-free DMEM without serum. 100 µl of the diluted matrigel was used to coat the wells of a 96 well plate and was allowed to polymerize for 2 hours at 37°C. After equilibrating the gel with the complete growth medium, 15×10^3 cells were seeded in each well and incubated for 20 hours. The tube formation was monitored under a phase contrast microscope (Axiovert 200, Zeiss) and imaged using MetaMorph system (Universal Imaging Corp).

HUVEC cells = assay: Tube formation assay, HUVEC; type: cell-based; settings: data not shown
Experimental: as §1

[3] = 30 mg/kg BID PO 7 days, data not shown

SMILES: COCC(=O)N1CCN(C(=O)C2CCC(Cn3c(=O)c4cc(OC)ccc4n(C)c3=O)CC2)CC1 (centres unmarked) [SEN461]
- body weight [1]: maintained their body weight with no significant changes
- histology of gastrointestinal tract [1]: absence of gross histological changes
- AXIN2 mRNA in HT-1080 xenograft tumors [2, 3]: without any significant effect
- CDC25A mRNA in HT-1080 xenograft tumors [2, 3]: without any significant effect
- c-MYC mRNA in HT-1080 xenograft tumors ([2]; 30 mg/kg BID PO 7 days, 1, 4, 8 h, vs control animals): down-modulation of c-MYC
- VEGF-A mRNA in HT-1080 xenograft tumors ([2]; 30 mg/kg BID PO, 1 h, treated versus control): did not show any difference
- pIC50 (143B osteosarcoma cells): < 4.52
- tubule-formation activity (HUVEC cells): did not show any effect
